Calls of active or inactive are those of the source. The calls are words filed in the database; no cut-off is given here.
How the values were obtained:
Parastagonospora nodorum = assay: Antimicrobial activity against Septoria nodorum; format: functional, organism-based
Xanthomonas campestris = assay: Antimicrobial activity against Xanthomonas campestris DSM 2405; format: functional, organism-based
[1] = biological target: Glycogen synthase kinase-3 beta (Homo sapiens, UniProt P49841); assay: Inhibition of GSK3-beta by luminescent assay
Nakaseomyces glabratus = assay: Antimicrobial activity against Candida glabrata DSM 6425; format: functional, organism-based
Zymoseptoria tritici = assay: Antimicrobial activity against Septoria tritici; format: functional, organism-based
Mammaliicoccus lentus = assay: Antimicrobial activity against Staphylococcus lentus DSM 6672; format: functional, organism-based
[2] = tested on: Staphylococcus epidermidis; assay: Antimicrobial activity against Staphylococcus epidermidis DSM 20044; format: functional, organism-based
Cutibacterium acnes = assay: Antimicrobial activity against Propionibacterium acnes DSM 1897; format: functional, organism-based
[3] = tested on: Pseudomonas syringae pv. aptata str. DSM 50252; assay: Antimicrobial activity against Pseudomonas syringae pv aptata DSM 50252; format: functional
[4] = Cytotoxicity against mouse NIH/3T3 cells after 24 hrs by celltiter-blue assay; format: cell-based; settings: nih3t3, 24 h
Ralstonia solanacearum = assay: Antimicrobial activity against Ralstonia solanacearum DSM 9544; format: functional, organism-based
Erwinia amylovora = assay: Antimicrobial activity against Erwinia amylovora DSM 50901; format: functional, organism-based
Escherichia coli = assay: Antimicrobial activity against Escherichia coli K-12 DSM 498; format: functional, organism-based
Pseudomonas fluorescens = assay: Antimicrobial activity against Pseudomonas fluorescens NCIMB 10586; format: functional, organism-based
HT-29 = assay: Cytotoxicity against human HT-29 cells after 24 hrs by celltiter-blue assay; format: functional, cell-based
Pseudomonas aeruginosa = assay: Antimicrobial activity against Pseudomonas aeruginosa DSM 50071; format: functional, organism-based
HepG2 = assay: Cytotoxicity against human HepG2 cells after 24 hrs by celltiter-blue assay; format: functional, cell-based
Bacillus subtilis = assay: Antimicrobial activity against Bacillus subtilis DSM 347; format: functional, organism-based

Chain of Glycogen synthase kinase-3 beta (P49841 whole entry): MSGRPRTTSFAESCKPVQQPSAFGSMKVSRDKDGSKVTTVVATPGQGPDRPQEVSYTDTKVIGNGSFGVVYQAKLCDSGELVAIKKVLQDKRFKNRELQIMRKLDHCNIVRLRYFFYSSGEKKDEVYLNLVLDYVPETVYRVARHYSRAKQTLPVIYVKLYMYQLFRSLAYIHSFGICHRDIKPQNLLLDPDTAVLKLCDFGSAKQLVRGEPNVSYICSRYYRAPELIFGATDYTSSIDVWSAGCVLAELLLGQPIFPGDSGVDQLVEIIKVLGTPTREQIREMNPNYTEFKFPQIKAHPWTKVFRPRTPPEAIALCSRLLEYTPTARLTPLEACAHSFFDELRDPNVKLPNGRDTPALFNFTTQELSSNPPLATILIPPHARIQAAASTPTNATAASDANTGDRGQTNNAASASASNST

| Structure (SMILES) | Activity (Parastagonospora nodorum) | Activity (Xanthomonas campestris) | IC50 [1] [nM] | Activity (Nakaseomyces glabratus) | Activity (Zymoseptoria tritici) | Activity (Mammaliicoccus lentus) | Activity [2] | Activity (Cutibacterium acnes) | Activity [3] | Activity [4] | Activity (Ralstonia solanacearum) | Activity (Erwinia amylovora) | Activity (Escherichia coli) | Activity (Pseudomonas fluorescens) | Activity (HT-29) | Activity (Pseudomonas aeruginosa) | Activity (HepG2) | Activity (Bacillus subtilis) |
| --- | --- | --- | --- | --- | --- | --- | --- | --- | --- | --- | --- | --- | --- | --- | --- | --- | --- | --- |
| O=C1OCC(Cc2ccccc2)=C1c1ccccc1 | Active | – | – | – | – | – | – | – | – | – | – | – | – | – | – | – | – | – |
| O=C1OCC(Cc2ccc(O)cc2)=C1c1ccc(O)cc1 [EUTYPOID B] | – | inactive | 780 | inactive | inactive | inactive | inactive | inactive | inactive | Non-toxic | inactive | inactive | inactive | inactive | inactive | inactive | inactive | inactive |
| O=C1OCC(Cc2ccc(O)c(O)c2)=C1c1ccc(O)cc1 [EUTYPOID C] | – | inactive | 670 | inactive | inactive | inactive | inactive | inactive | inactive | Non-toxic | inactive | inactive | inactive | inactive | inactive | inactive | inactive | inactive |
| O=C1OCC(Cc2ccc(O)cc2)=C1c1cc(O)cc(O)c1 [EUTYPOID D] | – | inactive | 4080 | inactive | inactive | inactive | inactive | inactive | inactive | Non-toxic | inactive | inactive | inactive | inactive | inactive | inactive | inactive | inactive |
| O=C1OCC(Cc2ccc(O)c(O)c2)=C1c1cc(O)cc(O)c1 [EUTYPOID E] | – | inactive | 2260 | inactive | inactive | inactive | inactive | inactive | inactive | Non-toxic | inactive | inactive | inactive | inactive | inactive | inactive | inactive | inactive |

— ChEMBL document CHEMBL1667734, “Eutypoids B-E produced by a Penicillium sp. strain from the North Sea” (J Nat Prod, 2011)
